Measurements: patent US9458456B2, “Methods and compositions for the diagnosis, classification, and treatment of cancer” (UNIVERSITY OF SOUTH ALABAMA, priority 2011, dated 2016)
pIC50: −log10 of the molar value.

Tests used:
Assay type in all cases: cell-based
Settings in all cases: Homo sapiens
[1] = test system: C4-2 castration-resistant prostate cancer cells; test: Docetaxel cell viability, C4-2 cells
Procedure: (§1) Castration-resistant prostate cancer cells (C4-2), Myb-knockdown castration-resistant prostate cancer cells (C4-2 shMyb), androgen-dependent prostate cancer cells (LNCap-Neo), Myb-overexpressing androgen-dependent prostate cancer cells (LNCaP-Myb), were treated with increasing concentrations of Docetaxel and the viability tested at 48 hr and 72 hr post-treatment. […] Table 2 summarizes the IC50 values for docetaxel in the various cell lines.

[2] = test system: LNCaP-Myb Myb-overexpressing androgen-dependent prostate cancer cells; test: Docetaxel cell viability, LNCaP-Myb cells
Procedure: as §1

[3] = test system: LNCaP-Neo androgen-dependent prostate cancer cells; test: Docetaxel cell viability, LNCaP-Neo cells
Procedure: as §1

[4] = test system: C4-2 shMyb Myb-knockdown castration-resistant prostate cancer cells; test: Docetaxel cell viability, C4-2shMyb cells
Procedure: as §1

For `CC(=O)O[C@@]12CO[C@@H]1C[C@H](O)[C@@]1(C)C(=O)[C@H](O)C3=C(C)[C@@H](OC(=O)[C@H](O)[C@@H](NC(=O)OC(C)(C)C)c4ccccc4)C[C@@](O)([C@@H](OC(=O)c4ccccc4)[C@H]21)C3(C)C` [Docetaxel], the pIC50 ([1]; C4-2, 48 hours) was 4.74, the pIC50 ([1]; C4-2, 72 hours) was 4.88 and the pIC50 ([2]; 48 hours) was 4.69. It also gave a pIC50 ([2]; 72 hours) of 4.83, a pIC50 ([3]; 48 hours) of 5.12 and a pIC50 ([3]; 72 hours) of 5.31. The pIC50 ([4]; 48 hours) was 5.15 and the pIC50 ([4]; 72 hours) was 5.32.
